Columns and labels:
JAK1 = biological target: T1, JAK1 (Homo sapiens, UniProt P23458); experiment: JAK1 enzyme inhibition test (LANCE method); assay type: biochemical; conditions: test compound 1 μM; read-out: Inhibitory rate (%) JAK1 1 μM
T1 construct: purchased Invitrogen
Summary of the method: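 TR-FRET (LANCE) kinase assay using JAK1 at 187.5 ng/mL, ULight-JAK1 peptide at 300 nM and ATP at 150 μM, given as solution concentrations before mixing. Buffer was 50 mM HEPES pH 7.5 with 10 mM MgCl2 and 2 mM DTT, and the reaction ran 1 h at room temperature. Eu anti-phosphotyrosine signal at 665 nm was expressed relative to a no-enzyme well, taken as 100% inhibition.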

Tyk2 = biological target: T2, Tyk2 (Homo sapiens, UniProt P29597); experiment: Tyk2 enzyme inhibition test (LANCE method); assay type: biochemical; conditions: test compound 1 μM; read-out: Inhibitory rate (%) Tyk2 1 μM
T2 construct: purchased Invitrogen
T2 sequence (P29597 whole entry): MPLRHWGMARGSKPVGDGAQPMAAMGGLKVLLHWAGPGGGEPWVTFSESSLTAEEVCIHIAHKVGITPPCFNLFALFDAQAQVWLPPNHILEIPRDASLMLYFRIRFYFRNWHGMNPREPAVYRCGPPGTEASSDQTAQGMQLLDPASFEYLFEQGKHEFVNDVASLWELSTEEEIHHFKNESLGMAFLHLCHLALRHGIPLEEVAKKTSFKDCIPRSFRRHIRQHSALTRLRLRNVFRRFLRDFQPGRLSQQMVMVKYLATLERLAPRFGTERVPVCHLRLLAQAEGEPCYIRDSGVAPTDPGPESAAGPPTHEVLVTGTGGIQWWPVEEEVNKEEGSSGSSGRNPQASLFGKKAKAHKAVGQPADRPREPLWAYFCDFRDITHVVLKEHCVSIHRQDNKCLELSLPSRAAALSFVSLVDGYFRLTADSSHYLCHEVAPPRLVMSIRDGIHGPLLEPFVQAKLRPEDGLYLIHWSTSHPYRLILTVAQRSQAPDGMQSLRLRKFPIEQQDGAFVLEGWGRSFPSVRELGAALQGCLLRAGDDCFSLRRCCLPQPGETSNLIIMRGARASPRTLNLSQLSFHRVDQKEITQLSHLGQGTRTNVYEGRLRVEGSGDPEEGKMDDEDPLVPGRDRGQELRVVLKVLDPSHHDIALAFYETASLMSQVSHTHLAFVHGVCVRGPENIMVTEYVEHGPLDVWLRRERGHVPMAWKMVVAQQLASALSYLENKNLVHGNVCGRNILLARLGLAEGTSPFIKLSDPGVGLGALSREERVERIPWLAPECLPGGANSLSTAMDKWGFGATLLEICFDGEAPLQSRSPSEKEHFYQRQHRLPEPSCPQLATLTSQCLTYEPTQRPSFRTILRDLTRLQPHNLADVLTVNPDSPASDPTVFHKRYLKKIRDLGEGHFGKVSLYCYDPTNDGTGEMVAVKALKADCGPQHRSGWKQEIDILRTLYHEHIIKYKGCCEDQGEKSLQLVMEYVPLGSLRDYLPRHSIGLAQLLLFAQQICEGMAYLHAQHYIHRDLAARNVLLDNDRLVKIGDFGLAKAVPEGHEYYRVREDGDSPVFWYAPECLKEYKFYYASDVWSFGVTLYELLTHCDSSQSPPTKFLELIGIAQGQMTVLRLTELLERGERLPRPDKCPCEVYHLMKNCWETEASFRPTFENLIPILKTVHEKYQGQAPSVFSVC
Summary of the method: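 Recombinant Tyk2 (375 ng/mL stock) with ULight-JAK1 peptide (300 nM stock) and ATP (30 μM stock) in HEPES pH 7.5/MgCl2/EGTA/DTT buffer, 1 h at room temperature. Stopped with EDTA plus Eu-anti-phosphotyrosine antibody; TR-FRET read at 665 nm after 1 h. No-enzyme wells define 100% inhibition.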

T1 sequence (P23458 whole entry): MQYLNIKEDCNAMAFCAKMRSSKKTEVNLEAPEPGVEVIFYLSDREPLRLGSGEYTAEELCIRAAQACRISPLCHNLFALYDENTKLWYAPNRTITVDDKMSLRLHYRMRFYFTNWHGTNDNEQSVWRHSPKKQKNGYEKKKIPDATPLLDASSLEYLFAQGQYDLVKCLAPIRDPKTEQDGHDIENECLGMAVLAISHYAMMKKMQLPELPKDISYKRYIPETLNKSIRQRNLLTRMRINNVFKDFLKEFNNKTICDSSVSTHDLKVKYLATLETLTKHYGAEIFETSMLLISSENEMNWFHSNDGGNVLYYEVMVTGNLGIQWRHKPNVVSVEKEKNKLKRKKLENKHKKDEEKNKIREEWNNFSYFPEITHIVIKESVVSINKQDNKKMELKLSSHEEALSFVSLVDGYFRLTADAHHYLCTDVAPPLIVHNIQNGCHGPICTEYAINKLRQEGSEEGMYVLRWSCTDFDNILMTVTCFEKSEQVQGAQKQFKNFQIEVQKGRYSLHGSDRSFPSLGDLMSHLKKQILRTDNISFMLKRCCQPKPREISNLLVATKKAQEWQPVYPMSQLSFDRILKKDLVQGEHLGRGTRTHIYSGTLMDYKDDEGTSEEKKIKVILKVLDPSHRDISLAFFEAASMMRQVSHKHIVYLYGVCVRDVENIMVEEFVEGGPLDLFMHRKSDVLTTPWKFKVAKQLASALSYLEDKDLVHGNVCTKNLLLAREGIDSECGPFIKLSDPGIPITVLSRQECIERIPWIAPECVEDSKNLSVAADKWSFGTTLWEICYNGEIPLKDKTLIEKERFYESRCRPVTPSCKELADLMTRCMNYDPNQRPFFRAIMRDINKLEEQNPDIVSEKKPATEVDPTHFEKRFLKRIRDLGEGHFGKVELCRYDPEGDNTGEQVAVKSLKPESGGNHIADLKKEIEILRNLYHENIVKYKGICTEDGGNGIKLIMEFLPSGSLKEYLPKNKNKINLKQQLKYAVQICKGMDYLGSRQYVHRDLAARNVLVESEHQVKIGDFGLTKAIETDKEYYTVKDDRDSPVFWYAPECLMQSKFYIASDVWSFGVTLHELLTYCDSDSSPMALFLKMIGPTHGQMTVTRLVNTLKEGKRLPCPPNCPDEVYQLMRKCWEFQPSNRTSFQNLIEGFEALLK

Row | inhibition at 1 µM (JAK1) [%] | inhibition at 1 µM (Tyk2) [%] | SMILES
1 | 100 | 99 | CCC(CC)n1nc(-c2csc(C(N)=O)c2)c2c(=O)[nH]ccc21 [Example 149, 4-(4-oxo-1-(pentan-3-yl)-4,5-dihydro-1H-pyrazolo[4,3-c]pyridin-3-yl)thiophene-2-carboxamide]
2 | 99 | 98 | CCC(COC)n1nc(-c2csc(C(N)=O)c2)c2c(=O)[nH]ccc21 (stereo not drawn) [Example 150, 4-(1-(1-methoxybutan-2-yl)-4-oxo-4,5-dihydro-1H-pyrazolo[4,3-c]pyridin-3-yl)thiophene-2-carboxamide]
3 | 98 | 98 | O=c1[nH]ccc2c1c(-c1cn[nH]c1)nn2-c1c(F)cccc1F [Example 151, 1-(2,6-difluorophenyl)-3-(1H-pyrazol-4-yl)-1,5-dihydro-4H-pyrazolo[4,3-c]pyridin-4-one]
4 | 97 | 99 | N#CCc1cc(-c2nn(-c3c(F)cccc3F)c3c(Cl)c[nH]c(=O)c23)cs1 [Example 152, (4-(7-chloro-1-(2,6-difluorophenyl)-4-oxo-4,5-dihydro-1H-pyrazolo[4,3-c]pyridin-3-yl)-2-thienyl)acetonitrile]
5 | 100 | 99 | CNC(=O)c1cc(-c2nn(C3CCCC3)c3cc[nH]c(=O)c23)cs1 [Example 155, 4-(1-cyclopentyl-4-oxo-4,5-dihydro-1H-pyrazolo[4,3-c]pyridin-3-yl)-N-methylthiophene-2-carboxamide]
6 | 100 | 100 | O=C(NC1CC1)c1cc(-c2nn(C3CCCC3)c3cc[nH]c(=O)c23)cs1 [Example 156, 4-(1-cyclopentyl-4-oxo-4,5-dihydro-1H-pyrazolo[4,3-c]pyridin-3-yl)-N-cyclopropylthiophene-2-carboxamide]
7 | 100 | 99 | O=C(NCCO)c1cc(-c2nn(C3CCCC3)c3cc[nH]c(=O)c23)cs1 [Example 157, 4-(1-cyclopentyl-4-oxo-4,5-dihydro-1H-pyrazolo[4,3-c]pyridin-3-yl)-N-(2-hydroxyethyl)thiophene-2-carboxamide]
8 | 91 | 91 | NC(=O)Cc1cccc(-c2nn(C3CCCC3)c3cc[nH]c(=O)c23)c1 [Example 158, 2-(3-(1-cyclopentyl-4-oxo-4,5-dihydro-1H-pyrazolo[4,3-c]pyridin-3-yl)phenyl)acetamide]
9 | 91 | 87 | NS(=O)(=O)c1cccc(-c2nn(C3CCCC3)c3cc[nH]c(=O)c23)c1 [Example 159, 3-(1-cyclopentyl-4-oxo-4,5-dihydro-1H-pyrazolo[4,3-c]pyridin-3-yl)benzenesulfonamide]
10 | 98 | 98 | NC(=O)Cc1cc(-c2nn(-c3c(F)cccc3F)c3c(Cl)c[nH]c(=O)c23)cs1 [Example 160, 2-(4-(7-chloro-1-(2,6-difluorophenyl)-4-oxo-4,5-dihydro-1H-pyrazolo[4,3-c]pyridin-3-yl)-2-thienyl)acetamide]
11 | 79 | 99 | O=c1[nH]cc(Cl)c2c1c(-c1ccc(N3CCOCC3)cc1)nn2-c1c(F)cccc1F [Example 161, 7-chloro-1-(2,6-difluorophenyl)-3-(4-(morpholin-4-yl)phenyl)-1,5-dihydro-4H-pyrazolo[4,3-c]pyridin-4-one]
12 | 99 | 99 | CNC(=O)c1cc(-c2nn(-c3c(F)cccc3F)c3c(Cl)c[nH]c(=O)c23)cs1 [Example 162, 4-(7-chloro-1-(2,6-difluorophenyl)-4-oxo-4,5-dihydro-1H-pyrazolo[4,3-c]pyridin-3-yl)-N-methylthiophene-2-carboxamide]
13 | 98 | 100 | N#CC1(NC(=O)c2cc(-c3nn(-c4c(F)cccc4F)c4c(Cl)c[nH]c(=O)c34)cs2)CC1 [Example 163, 4-(7-chloro-1-(2,6-difluorophenyl)-4-oxo-4,5-dihydro-1H-pyrazolo[4,3-c]pyridin-3-yl)-N-(1-cyanocyclopropyl)thiophene-2-carboxamide]
14 | 66 | 99 | O=c1[nH]cc(Cl)c2c1c(-c1ccc(N3CCOCC3)nc1)nn2-c1c(F)cccc1F [Example 164, 7-chloro-1-(2,6-difluorophenyl)-3-(6-(morpholin-4-yl)pyridin-3-yl)-1,5-dihydro-4H-pyrazolo[4,3-c]pyridin-4-one]
15 | 96 | 98 | N#Cc1c[nH]c(=O)c2c(-c3csc(C(N)=O)c3)nn(C3CCCC3)c12 [Example 165, 4-(7-cyano-1-cyclopentyl-4-oxo-4,5-dihydro-1H-pyrazolo[4,3-c]pyridin-3-yl)thiophene-2-carboxamide]
16 | 98 | 100 | Cn1cc(NC(=O)c2cc(-c3nn(-c4c(F)cccc4F)c4c(Cl)c[nH]c(=O)c34)cs2)cn1 [Example 166, 4-(7-chloro-1-(2,6-difluorophenyl)-4-oxo-4,5-dihydro-1H-pyrazolo[4,3-c]pyridin-3-yl)-N-(1-methyl-1H-pyrazol-4-yl)thiophene-2-carboxamide]
17 | 53 | 97 | N#CCOc1ccc(-c2nn(-c3c(F)cccc3F)c3c(Cl)c[nH]c(=O)c23)cc1 [Example 167, (4-(7-chloro-1-(2,6-difluorophenyl)-4-oxo-4,5-dihydro-1H-pyrazolo[4,3-c]pyridin-3-yl)phenoxy)acetonitrile]
18 | 46 | 97 | O=c1[nH]cc(Cl)c2c1c(-c1cccc(OCCO)c1)nn2-c1c(F)cccc1F [Example 168, 7-chloro-1-(2,6-difluorophenyl)-3-(3-(2-hydroxyethoxyl)phenyl)-1,5-dihydro-4H-pyrazolo[4,3-c]pyridin-4-one]
19 | 79 | 99 | NC(=O)COc1ccc(-c2nn(-c3c(F)cccc3F)c3c(Cl)c[nH]c(=O)c23)cc1 [Example 169, 2-(4-(7-chloro-1-(2,6-difluorophenyl)-4-oxo-4,5-dihydro-1H-pyrazolo[4,3-c]pyridin-3-yl)phenoxy)acetamide]
20 | 99 | 98 | NC(=O)c1cc(-c2nn(C3CCC(=O)CC3)c3cc[nH]c(=O)c23)cs1 [Example 170, 4-(4-oxo-1-(4-oxocyclohexyl)-4,5-dihydro-1H-pyrazolo[4,3-c]pyridin-3-yl)thiophene-2-carboxamide]
21 | 100 | 100 | NC(=O)c1cc(-c2nn(C3CCC(O)CC3)c3cc[nH]c(=O)c23)cs1 (stereo not drawn) [Example 171, 4-(1-(4-hydroxycyclohexyl)-4-oxo-4,5-dihydro-1H-pyrazolo[4,3-c]pyridin-3-yl)thiophene-2-carboxamide]
22 | 99 | 97 | NC(=O)c1cc(-c2nn(C3CCC(O)(c4ccccc4)CC3)c3cc[nH]c(=O)c23)cs1 (stereo not drawn) [Example 172, 4-(1-(4-hydroxy-4-phenylcyclohexyl)-4-oxo-4,5-dihydro-1H-pyrazolo[4,3-c]pyridin-3-yl)thiophene-2-carboxamide]
23 | 99 | 96 | NS(=O)(=O)c1ccc(-c2nn(C3CCC(=O)CC3)c3cc[nH]c(=O)c23)cc1 [Example 173, 4-(4-oxo-1-(4-oxocyclohexyl)-4,5-dihydro-1H-pyrazolo[4,3-c]pyridin-3-yl)benzenesulfonamide]
24 | 99 | 98 | NS(=O)(=O)c1ccc(-c2nn(C3CCC(O)(c4ccccc4)CC3)c3cc[nH]c(=O)c23)cc1 (stereo not drawn) [Example 174, 4-(1-(4-hydroxy-4-phenylcyclohexyl)-4-oxo-4,5-dihydro-1H-pyrazolo[4,3-c]pyridin-3-yl)benzenesulfonamide]
25 | 86 | 100 | NC(=O)Cn1cc(-c2nn(-c3c(F)cccc3F)c3c(Br)c[nH]c(=O)c23)cn1 [Example 175, 2-(4-(7-bromo-1-(2,6-difluorophenyl)-4-oxo-4,5-dihydro-1H-pyrazolo[4,3-c]pyridin-3-yl)-1H-pyrazol-1-yl)acetamide]
26 | 95 | 100 | O=c1[nH]cc(Br)c2c1c(-c1cn[nH]c1)nn2-c1c(F)cccc1F [Example 176, 7-bromo-1-(2,6-difluorophenyl)-3-(1H-pyrazol-4-yl)-1,5-dihydro-4H-pyrazolo[4,3-c]pyridin-4-one]
27 | 91 | 100 | O=c1[nH]cc(Cl)c2c1c(-c1cn[nH]c1)nn2-c1c(F)cccc1F [Example 177, 7-chloro-1-(2,6-difluorophenyl)-3-(1H-pyrazol-4-yl)-1,5-dihydro-4H-pyrazolo[4,3-c]pyridin-4-one]
28 | 93 | 99 | N#Cc1c[nH]c(=O)c2c(Nc3cccc(C(N)=O)c3)cn(C3CCCC3)c12 [Example 178, 3-((7-cyano-1-cyclopentyl-4-oxo-4,5-dihydro-1H-pyrrolo[3,2-c]pyridin-3-yl)amino)benzamide]
29 | 94 | 100 | O=c1[nH]ccc2c1c(-c1ccc(N3CCOCC3)cc1)nn2-c1c(F)cccc1F [Example 179, 1-(2,6-difluorophenyl)-3-(4-(morpholin-4-yl)phenyl)-1,5-dihydro-4H-pyrazolo[4,3-c]pyridin-4-one]
30 | 92 | 101 | CNC(=O)c1ccc(-c2nn(-c3c(F)cccc3F)c3cc[nH]c(=O)c23)cc1 [Example 180, 4-(1-(2,6-difluorophenyl)-4-oxo-4,5-dihydro-1H-pyrazolo[4,3-c]pyridin-3-yl)-N-methylbenzamide]

Source: patent publication US9371320B2, “Heterocyclic compound” (TAKEDA PHARMACEUTICAL COMPANY LIMITED, priority 2012, dated 2016)
